Results reported in patent publication US20230332252A1, “CELL-FREE BIOSENSORS WITH DNA STRAND DISPLACEMENT CIRCUITS AND POLYMERASE STRAND RECYCLING (PSR)” (Northwestern University, priority 2021, published 2023).

Key:
[1] = target: T1, TetR (Escherichia coli, UniProt P04483); assay: biochemical
T1 construct: made in house; host or cells: E. coli Rosetta 2(DE3)pLysS, pET-28c backbone (pJBL701)
Procedure: To test if this spacing remained important in the TMSD platform, we used TetR as our model aTF to determine the optimum spacing for efficient repression in the presence of TetR and efficient transcription in the absence of TetR [41]. We used the native sequence that follows the canonical T7 RNAP promoter as a spacer in 2-bp increments from 0 to 10-bp, immediately followed by the tetO sequence and InvadeR sequence (FIG. 3a). IVT reactions were set up using 50 nM DNA template with or without purified recombinant TetR protein in 100-fold excess of the DNA template. […]
Using the 2-bp spacer, we next determined whether TetR can be de-repressed with its cognate ligand, anhydrotetracycline (aTc) to allow transcription of InvadeR (FIG. 3c). […]
Homemade IVT reactions were set up by adding the following components listed at their final concentration: IVT buffer (40 mM Tris-HCl pH 8, 8 mM MgCl2, 10 mM DTT, 20 mM NaCl, and 2 mM spermidine), 11.4 mM NTPs pH 7.5, 0.3 U thermostable inorganic pyrophosphatase (#M0296S, New England Biolabs), transcription template, DNA gate(s) and MilliQ ultrapure H2O to a total volume of 20 μL. […] Immediately prior to plate reader measurements, 2 ng of T7 RNAP and, optionally, a ligand at the indicated concentration were added to the reaction.

[2] = target: T2, SmtB (Synechococcus elongatus, UniProt P30340); assay: SmtB-regulated in vitro transcription of InvadeR with TMSD fluorescence output; type: biochemical; conditions: improved smtO-hairpin-InvadeR design, low background signal
T2 construct: 6xHis (C); made in house; host or cells: E. coli Rosetta 2(DE3)pLysS, pET-28c backbone (pJBL725)
T2 sequence (P30340 with tags, fused parts or gaps): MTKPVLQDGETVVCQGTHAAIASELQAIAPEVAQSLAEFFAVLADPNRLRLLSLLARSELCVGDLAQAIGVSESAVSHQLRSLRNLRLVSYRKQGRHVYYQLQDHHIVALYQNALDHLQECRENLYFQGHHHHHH
Procedure: (§1) In addition to TetR, we chose TtgR [44] and SmtB [45] as representative aTFs of the MarR family and SmtB/ArsR family, respectively. We placed the cognate operator sequence of each aTF 2-bp downstream of the T7 promoter and immediately upstream of the InvadeR sequences (FIG. 4a-c). When tetracycline was used to induce TetR-regulated reactions, we observed a strong and robust fluorescent signal visible in ˜10 minutes (FIG. 4d, FIG. 13a). […] We note that we observed a slight decrease in the induction speed from the TtgR-regulated reactions compared to that of the TetR-regulated reactions, likely due to the reduced ttgO DNA template concentration needed to accommodate TtgR's relatively weak binding affinity to its operator sequence.
We were immediately successful in adapting the system to TetR and TtgR (FIG. 4a, b). […]
(§2) Regulated IVT reactions additionally included a purified aTF at the indicated concentration and were equilibrated at 37° C. for ˜10 minutes. Immediately prior to plate reader measurements, 2 ng of T7 RNAP and, optionally, a ligand at the indicated concentration were added to the reaction. Reactions were then characterized on a plate reader as described in Plate reader quantification and micromolar equivalent fluorescein (MEF) standardization.

[3] = target: T3, TtgR (Pseudomonas putida, UniProt Q88N29); assay: TtgR-regulated in vitro transcription of InvadeR with TMSD fluorescence output; type: biochemical; conditions: TtgR-regulated reactions, with versus without ligand
T3 construct: made in house; host or cells: E. coli Rosetta 2(DE3)pLysS, pET-28c backbone (pJBL721)
T3 sequence (Q88N29 other isoform, or with tags, fused parts or gaps): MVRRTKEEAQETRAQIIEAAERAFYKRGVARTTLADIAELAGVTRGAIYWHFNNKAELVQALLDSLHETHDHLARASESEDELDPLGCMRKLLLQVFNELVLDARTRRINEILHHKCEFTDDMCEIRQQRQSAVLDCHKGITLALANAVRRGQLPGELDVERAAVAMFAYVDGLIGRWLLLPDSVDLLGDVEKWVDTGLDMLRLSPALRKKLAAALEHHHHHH
Procedure: as §1, §2

SMILES: Cc1c2c(c(O)c3c(O)cccc13)C(=O)[C@]1(O)C(=O)C(C(N)=O)=C(O)[C@@H](N(C)C)[C@@H]1C2 [aTc, anhydrotetracycline]
- EC50 [1]: 2.5 to 5 µM

SMILES: O=S(=O)([O-])[O-].[Zn+2] [ZnSO4]
- fluorescence activation by ligand [2]: clear activation

SMILES: O=C1C[C@@H](c2ccc(O)cc2)Oc2cc(O)cc(O)c21 [naringenin]
- fluorescence activation by ligand [3]: robust fluorescence activation only in the presence of the ligand
